Earlier results in US11266662B2, “Ganaxolone for use in prophylaxis and treatment of postpartum depression” (Marinus Pharmaceuticals, Inc., priority 2018, dated 2022).

Test system: patients
Settings: 60 μg and 90 μg brexanolone dose regimens, IV infusion; cited from earlier work

**Q.** For `CC(=O)[C@H]1CC[C@H]2[C@@H]3CC[C@H]4C[C@H](O)CC[C@]4(C)[C@H]3CC[C@]12C` [brexanolone], which “Patients with abrupt loss of consciousness, syncope or presyncope” value is on record?
**A.** about 4%
